Experimental data: patent publication US9346754B2, “Method of treating advanced non-alcoholic steatohepatitis” (priority 2014, dated 2016)
“Also recorded” adds a separate entry of the source.

Experiments:
[1] = test system: FLAP mRNA; test: Liver gene expression by quantitative RT-PCR: FLAP; assay type: in vivo, C57BL/6 mice; settings: 100 mg/kg oral once daily, 8 to 12 weeks of age (MN-001-high)
Procedure: (§1) Total RNA was extracted from liver samples using RNAiso (Takara Bio, Japan) according to the manufacturer's instructions. One μg of RNA was reverse-transcribed using a reaction mixture containing 4.4 mM MgCl2 (F. Hoffmann-La Roche, Switzerland), 40 U RNase inhibitor (Toyobo, Japan), 0.5 mM dNTP (Promega, USA), 6.28 μM random hexamer (Promega), 5× first strand buffer (Promega), 10 mM dithiothreitol (Invitrogen, USA) and 200 U MMLV-RT (Invitrogen) in a final volume of 20 μL. The reaction was carried out for 1 hour at 37° C., followed by 5 minutes at 99° C. Real-time PCR was performed using real-time PCR DICE and SYBR premix Taq (Takara Bio). To calculate the relative mRNA expression level, the expression of each gene was normalized to that of reference gene 36B4 (gene symbol: Rp1p0). Information of PCR-primer sets are described in Table 1. [table] […] P values<0.05 were considered statistically significant. […] Results were expressed as mean±SD.

[2] = Liver weight and liver-to-body weight ratio in STAM mice; assay type: in vivo, C57BL/6 mice
Excerpt: Mice in all groups will be sacrificed for the following assays at 12 weeks of age. Individual liver weight will be measured, and liver-to-body weight ratio will be calculated. Liver hydroxyproline will be quantified by a hydrolysis method. Histopathological analyses of liver sections (according to routine methods) HE staining (to estimate NAFLD Activity score), Sirius-red staining (to estimate the percentage of fibrosis area). F4/80 immunostaining (to estimate the percentage of inflammation area), Alpha-SMA immunostaining (to estimate the percentage of a-SMA positive area) are performed. Gene expression assays using total RNA from the liver Real-time RT-PCR analysis will be performed for TIMP-1, Collagen Type 1, α-SMA, 5-lipoxygenase, FLAP and LTC4 synthase are also performed. Statistical tests will be performed using Bonferroni Multiple Comparison Test. P values<0.05 will be considered statistically significant. […] P values<0.05 were considered statistically significant. […] Results were expressed as mean±SD.

[3] = Telmisartan 10 mg/kg oral once daily, 8 to 12 weeks of age
Procedure: NASH was induced in 50 male mice by a single subcutaneous injection of 200 μg streptozotocin (STZ, Sigma-Aldrich, USA) solution 2 days after birth and feeding with high fat diet (HFD, 57 kcal % fat, cat#: HFD32, CLEA Japan, Japan) after 4 weeks of age.
MN-001 was administered at doses of 10, 30, and 100 mg/kg once daily. Telmisartan was administered at a dose of 10 mg/kg once daily.
Statistical analyses were performed using Bonferroni Multiple Comparison Test on GraphPad Prism 4 (GraphPad Software, USA). P values<0.05 were considered statistically significant. A trend or tendency was assumed when a one-tailed t-test returned P values<0.10. Results were expressed as mean±SD.
The viability, clinical signs and behavior were monitored daily. Body weight was recorded before the treatment. […] The animals were sacrificed by exsanguination through direct cardiac puncture under ether anesthesia (Wako Pure Chemical Industries).

[4] = test system: LTC4 synthase mRNA; test: Liver gene expression by quantitative RT-PCR: LTC4 synthase; assay type: in vivo, C57BL/6 mice; settings: Telmisartan 10 mg/kg oral once daily, 8 to 12 weeks of age
Procedure: as §1

[5] = any doses of MN-001 (10, 30, 100 mg/kg oral once daily)
[6] = Telmisartan 10 mg/kg oral once daily, 8 to 12 weeks of age

| Structure (SMILES) | FLAP mRNA expression levels compared with the Vehicle group [1] | Mean liver weight compared with the Vehicle group [2, 5] | Mean liver-to-body weight ratio compared with the Vehicle group [2, 5] | Mortality (animals found dead) [3] | Mean liver weight compared with the Vehicle group [2, 6] | Mean liver-to-body weight ratio compared with the Vehicle group [2, 6] | LTC4 synthase mRNA expression levels compared with the Vehicle group [4] |
| --- | --- | --- | --- | --- | --- | --- | --- |
| CCCc1c(SCCCOc2ccc(C(C)=O)c(OCCCC(=O)O)c2CCC)ccc(C(C)=O)c1O [MN-001] | tended to increase | no significant differences | no significant differences |  |  |  |  |
| CCCc1nc2c(C)cc(-c3nc4ccccc4n3C)cc2n1Cc1ccc(-c2ccccc2C(=O)O)cc1 [Telmisartan, reference compound] |  |  |  | One of the Telmisartan group was found dead on day 24 | significantly decreased; also recorded: significant decrease | significant decrease | tended to decrease |
